Measurements taken from publication PMC9230573 (Frontiers in Pharmacology, 2022).
Several values for one entry are separate records, joined by “and”; a condition that tells them apart may be missing. Identical values can stand only once. Entries after “also recorded” stand apart in the source; their conditions may differ. Where a SMILES comes first, the peptide text is derived from it. Bridges are numbered along the chain shown (N, C = ends).

Experiments:
rat PNL pain model = conditions: in vivo
rat CCI pain model = conditions: in vivo
rat α3β2 nAChR = rat α3β2 nAChR (Rattus norvegicus, UniProt P04757+P12390); assay: cell-based
Sequence of rat α3β2 nAChR (P04757 26-499 limits assumed): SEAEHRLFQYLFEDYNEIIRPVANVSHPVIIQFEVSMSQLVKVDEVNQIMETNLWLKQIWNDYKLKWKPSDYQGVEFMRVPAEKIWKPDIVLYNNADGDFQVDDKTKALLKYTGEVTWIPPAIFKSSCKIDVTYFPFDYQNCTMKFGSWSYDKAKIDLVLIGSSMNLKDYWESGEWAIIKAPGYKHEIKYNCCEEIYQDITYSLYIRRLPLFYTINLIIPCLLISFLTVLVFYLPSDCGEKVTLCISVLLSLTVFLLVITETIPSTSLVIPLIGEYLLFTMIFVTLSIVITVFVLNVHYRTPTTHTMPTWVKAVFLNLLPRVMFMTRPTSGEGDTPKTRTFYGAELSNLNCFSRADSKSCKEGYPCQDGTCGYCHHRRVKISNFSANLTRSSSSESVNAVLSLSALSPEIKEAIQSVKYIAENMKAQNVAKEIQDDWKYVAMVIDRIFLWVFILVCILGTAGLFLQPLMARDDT
Sequence of rat α3β2 nAChR (P12390 25-500 limits assumed): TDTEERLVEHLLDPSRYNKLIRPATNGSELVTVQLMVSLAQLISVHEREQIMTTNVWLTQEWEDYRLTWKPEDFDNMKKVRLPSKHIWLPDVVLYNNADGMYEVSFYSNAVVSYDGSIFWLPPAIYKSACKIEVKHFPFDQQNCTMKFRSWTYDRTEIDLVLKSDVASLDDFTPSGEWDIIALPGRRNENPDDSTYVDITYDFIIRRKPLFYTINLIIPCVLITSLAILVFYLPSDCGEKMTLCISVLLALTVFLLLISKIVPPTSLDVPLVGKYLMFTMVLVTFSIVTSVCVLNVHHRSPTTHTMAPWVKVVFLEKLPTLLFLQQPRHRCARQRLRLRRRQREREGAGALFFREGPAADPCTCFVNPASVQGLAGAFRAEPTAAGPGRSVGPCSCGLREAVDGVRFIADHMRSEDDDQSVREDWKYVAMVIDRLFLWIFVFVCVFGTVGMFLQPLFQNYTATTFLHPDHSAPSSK

[1] = tested on: GABABR-coupled Cav2.2 channels (human GABAB receptor R1 + R2 subunits and Cav2.2); type: cell-based; conditions: SEM
[2] = tested on: T-type (Cav3.2) calcium channels; type: cell-based
[3] = tested on: voltage-gated sodium channels in DRG neurons; type: cell-based, rat
[4] = tested on: L-type (Cav1.2) calcium channels; type: cell-based
[5] = tested on: voltage-gated potassium channels in DRG neurons; type: cell-based, rat
locomotor activity = conditions: rat, in vivo

Row | Compound | elevation value of the pain threshold (rat PNL pain model) [g] | increased mechanical pressure threshold (elevation value of pain threshold) (rat PNL pain model) [g] | pain threshold elevation percentage (rat CCI pain model) | pain threshold (rat PNL pain model) | increase in pain threshold (rat CCI pain model) | Hillslope (rat α3β2 nAChR) | IC50 (rat α3β2 nAChR) [nM] | percent inhibition of IBa at GABABR-coupled Cav2.2 channels [1] [%] | inhibition of T-type calcium channels (in words) [2] | inhibition of voltage-gated sodium channels (in words) [3] | inhibition of L-type calcium channels (in words) [4] | inhibition of voltage-gated potassium channels (in words) [5] | effect on locomotor activity (in words) (locomotor activity)
1 | Vc1.1 [reference compound] | 7.4 | 71.2 | 44.3 ± 9.1% and 26.1 ± 10.0% |  |  |  |  |  |  |  |  |  | 
2 | CC[C@H](C)[C@@H]1NC(=O)[C@@H]2CCCN2C(=O)[C@@H]2CSSC[C@H](NC(=O)[C@@H](N)CC(N)=O)C(=O)N[C@@H](CSSC[C@@H](C(N)=O)NC(=O)[C@H](CC(N)=O)NC(=O)[C@H](Cc3ccccc3)NC(=O)[C@H](CCCNC(=N)N)NC(=O)[C@H](CO)NC(=O)[C@H](Cc3ccc(O)cc3)NC(=O)[C@H](CC(=O)O)NC1=O)C(=O)N[C@@H](CCSC)C(=O)N[C@@H](Cc1ccccc1)C(=O)N[C@@H](Cc1c[nH]cn1)C(=O)N[C@@H]([C@@H](C)O)C(=O)N2 [Vt1.27] (H-NCCMFHTCPIDYSRFNC-NH2; disulfide 2-8, 3-17) | 37.6 |  | 56.4 ± 14.9% and 33.3 ± 15.3% | 126.2 ± 9.16 g and 138.8 ± 23.6 g and 165.0 ± 21.4 g | 67.2 g and 40.0 g | -0.484 | 1160 | 19 ± 2 | did not significantly inhibit | inactive; also recorded: did not significantly inhibit | did not significantly inhibit | inactive; also recorded: did not significantly inhibit | did not affect locomotor activity
